In ChEMBL document CHEMBL1201862, “PubChem BioAssay data set” (2004):
Values belong to the compound of their own block, whether it stands above or below them. Active and inactive are the calls of the source. Rule as the data show it, for most assays here: actives have a measured IC50 and inactives only a lower limit.

Legend:
[1] = molecular target: T1, Caspase-3 (Homo sapiens, UniProt P42574); format: functional
T1 sequence (P42574 whole entry): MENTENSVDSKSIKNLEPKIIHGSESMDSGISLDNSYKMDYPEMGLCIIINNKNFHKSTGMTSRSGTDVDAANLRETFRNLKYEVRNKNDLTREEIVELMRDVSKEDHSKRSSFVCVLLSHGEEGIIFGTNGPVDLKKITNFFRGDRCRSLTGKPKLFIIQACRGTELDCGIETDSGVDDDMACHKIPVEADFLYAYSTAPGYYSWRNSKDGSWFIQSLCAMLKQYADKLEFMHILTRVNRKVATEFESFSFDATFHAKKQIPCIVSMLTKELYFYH

[2] = molecular target: T2, Sentrin-specific protease 6 (Homo sapiens, UniProt Q9GZR1); format: functional
T2 sequence (Q9GZR1 whole entry): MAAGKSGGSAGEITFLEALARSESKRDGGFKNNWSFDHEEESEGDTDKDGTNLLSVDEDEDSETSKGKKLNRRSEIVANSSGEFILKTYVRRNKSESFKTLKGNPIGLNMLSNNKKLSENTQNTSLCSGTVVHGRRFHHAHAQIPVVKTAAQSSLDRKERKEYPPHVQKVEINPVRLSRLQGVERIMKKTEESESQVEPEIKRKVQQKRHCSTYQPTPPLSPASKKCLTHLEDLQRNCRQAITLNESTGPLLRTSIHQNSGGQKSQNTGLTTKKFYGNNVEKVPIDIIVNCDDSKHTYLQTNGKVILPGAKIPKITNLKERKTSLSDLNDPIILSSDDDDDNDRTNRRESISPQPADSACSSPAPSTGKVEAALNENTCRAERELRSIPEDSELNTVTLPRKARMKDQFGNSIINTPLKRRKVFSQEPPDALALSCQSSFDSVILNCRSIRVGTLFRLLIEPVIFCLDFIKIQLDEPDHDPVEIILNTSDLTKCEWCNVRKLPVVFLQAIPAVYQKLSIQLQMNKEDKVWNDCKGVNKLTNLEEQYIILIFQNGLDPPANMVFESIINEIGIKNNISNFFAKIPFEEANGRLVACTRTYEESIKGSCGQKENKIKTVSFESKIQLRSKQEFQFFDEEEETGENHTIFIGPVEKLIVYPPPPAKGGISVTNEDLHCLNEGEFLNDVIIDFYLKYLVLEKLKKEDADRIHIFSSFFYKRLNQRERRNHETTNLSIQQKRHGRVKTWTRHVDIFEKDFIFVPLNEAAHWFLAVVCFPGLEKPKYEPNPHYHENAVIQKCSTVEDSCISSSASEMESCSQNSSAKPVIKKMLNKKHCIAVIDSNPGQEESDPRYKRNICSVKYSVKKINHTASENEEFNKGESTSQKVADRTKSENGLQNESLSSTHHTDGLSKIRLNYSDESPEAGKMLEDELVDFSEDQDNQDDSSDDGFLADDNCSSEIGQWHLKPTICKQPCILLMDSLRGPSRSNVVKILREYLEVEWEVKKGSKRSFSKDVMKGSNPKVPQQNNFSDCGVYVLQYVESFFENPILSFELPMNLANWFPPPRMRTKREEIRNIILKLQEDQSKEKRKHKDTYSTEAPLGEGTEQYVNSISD

[3] = molecular target: T3, Sentrin-specific protease 8 (Homo sapiens, UniProt Q96LD8); format: functional;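 also: luminescence read-out of SENP8 inhibition, dose-response confirmation following an ultra-high-throughput screen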
T3 sequence (Q96LD8 whole entry): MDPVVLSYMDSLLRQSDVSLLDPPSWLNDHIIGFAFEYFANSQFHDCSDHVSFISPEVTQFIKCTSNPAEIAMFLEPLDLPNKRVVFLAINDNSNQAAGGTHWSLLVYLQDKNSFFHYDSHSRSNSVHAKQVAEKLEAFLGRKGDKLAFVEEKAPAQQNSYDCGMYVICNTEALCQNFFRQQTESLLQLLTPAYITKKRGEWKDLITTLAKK

[4] = molecular target: T3, Sentrin-specific protease 8; test: inhibition of human SENP8 cleavage activity – biochemical, luminescence, SAR follow-up (AID 504501); format: functional
[5] = molecular target: T4, Sentrin-specific protease 7 (Homo sapiens, UniProt Q9BQF6); format: functional;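 also: Luminescence-based dose-response confirmation of ultra-high-throughput screening hits, measuring inhibition of SENP7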
T4 sequence (Q9BQF6 whole entry): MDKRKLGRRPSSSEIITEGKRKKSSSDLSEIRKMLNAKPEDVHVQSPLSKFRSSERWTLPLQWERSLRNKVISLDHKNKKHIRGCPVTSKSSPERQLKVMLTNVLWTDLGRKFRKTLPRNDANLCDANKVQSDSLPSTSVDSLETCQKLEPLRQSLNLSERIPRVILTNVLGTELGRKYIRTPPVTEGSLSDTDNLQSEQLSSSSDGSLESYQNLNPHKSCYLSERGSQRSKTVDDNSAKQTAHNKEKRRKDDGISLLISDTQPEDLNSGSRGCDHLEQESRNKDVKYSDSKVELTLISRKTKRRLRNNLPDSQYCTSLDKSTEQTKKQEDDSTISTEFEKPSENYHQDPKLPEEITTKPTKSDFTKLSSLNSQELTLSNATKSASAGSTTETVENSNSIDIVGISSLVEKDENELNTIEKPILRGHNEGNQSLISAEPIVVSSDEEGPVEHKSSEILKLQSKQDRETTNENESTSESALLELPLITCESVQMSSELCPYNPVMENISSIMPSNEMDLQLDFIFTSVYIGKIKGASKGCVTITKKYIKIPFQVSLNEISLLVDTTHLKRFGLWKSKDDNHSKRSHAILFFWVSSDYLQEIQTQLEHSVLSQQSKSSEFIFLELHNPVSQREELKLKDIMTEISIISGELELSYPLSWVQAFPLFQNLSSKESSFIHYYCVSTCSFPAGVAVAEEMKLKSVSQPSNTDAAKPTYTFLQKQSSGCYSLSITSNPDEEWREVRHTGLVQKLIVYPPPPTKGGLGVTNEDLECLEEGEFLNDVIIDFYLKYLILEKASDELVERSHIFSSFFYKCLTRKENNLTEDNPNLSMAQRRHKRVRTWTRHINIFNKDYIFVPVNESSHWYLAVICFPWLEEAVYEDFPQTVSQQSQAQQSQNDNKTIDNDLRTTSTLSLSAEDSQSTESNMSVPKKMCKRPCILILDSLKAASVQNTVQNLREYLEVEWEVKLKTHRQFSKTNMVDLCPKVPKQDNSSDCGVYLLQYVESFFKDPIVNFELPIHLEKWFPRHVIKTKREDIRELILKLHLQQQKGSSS

[6] = molecular target: T2, Sentrin-specific protease 6; test: SAR Analysis of small molecule inhibitors of Sentrin-specific protease 6 (SENP6) using a Luminescent assay. [Related pubchem assays (depositor defined):AID2582, AID2599]; format: functional
[7] = molecular target: T4, Sentrin-specific protease 7; test: inhibition of human SENP7 cleavage activity – biochemical, luminescence, SAR follow-up (AID 504497); format: functional
[8] = molecular target: T1, Caspase-3; test: SAR Analysis of small molecule inhibitors of Sentrin-specific proteases (SENPs) using a Caspase-3 Selectivity assay. [Related pubchem assays (depositor defined):AID2540, AID2599, AID434973, AID489001]; format: functional
[9] = molecular target: Phospholipase A2 (Homo sapiens, UniProt P04054); format: functional;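 also: confirmatory dose-response counterscreen on phospholipase A2, testing hits that came from an ultra-high-throughput screen for ATG4B inhibitors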
Chain of Phospholipase A2 (P04054 whole entry): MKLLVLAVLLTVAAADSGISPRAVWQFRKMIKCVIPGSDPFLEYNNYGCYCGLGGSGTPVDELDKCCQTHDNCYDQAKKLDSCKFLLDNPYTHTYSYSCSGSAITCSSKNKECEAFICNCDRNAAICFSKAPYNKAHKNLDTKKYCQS

[10] = molecular target: T5, Cysteine protease ATG4B (Homo sapiens, UniProt Q9Y4P1); format: functional;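 also: Fluorescence-based dose-response confirmation assay measuring inhibition of ATG4B activity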
T5 sequence (Q9Y4P1 whole entry): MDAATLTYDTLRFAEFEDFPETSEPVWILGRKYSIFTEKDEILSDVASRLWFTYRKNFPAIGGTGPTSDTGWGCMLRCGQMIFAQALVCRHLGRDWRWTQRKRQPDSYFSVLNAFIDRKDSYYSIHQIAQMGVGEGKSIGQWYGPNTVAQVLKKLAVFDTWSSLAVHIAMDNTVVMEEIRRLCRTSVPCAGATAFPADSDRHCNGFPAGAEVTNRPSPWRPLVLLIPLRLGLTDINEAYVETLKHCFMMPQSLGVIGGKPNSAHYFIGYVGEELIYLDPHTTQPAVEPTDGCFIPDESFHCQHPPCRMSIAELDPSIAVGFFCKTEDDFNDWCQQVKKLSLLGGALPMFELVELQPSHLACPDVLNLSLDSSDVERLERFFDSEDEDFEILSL

[11] = molecular target: T1, Caspase-3; test: inhibition of recombinant caspase-3 activity – biochemical, luminescence, set 2, selectivity assay for SENP protease inhibitor project, SAR follow-up (AID 588599); format: functional
[12] = molecular target: T3, Sentrin-specific protease 8; test: inhibition of sentrin protease 8 – biochemical, luminescence, set 2, SAR follow-up (AID 588601); format: functional
[13] = molecular target: Beta Lactamase (Pseudomonas aeruginosa, UniProt Q932Y6); test: BLA reporter interference, concentration series – BLA reporter cells, FRET fluorescence, artefact control for TLR9-MyD88 binding inhibitor project, dose response (AID 588341); format: cell-based;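 also: cell based assay in CHO-K1 cells stably expressing beta-lactamase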
Chain of Beta Lactamase (Q932Y6 whole entry, the tested form may be a part): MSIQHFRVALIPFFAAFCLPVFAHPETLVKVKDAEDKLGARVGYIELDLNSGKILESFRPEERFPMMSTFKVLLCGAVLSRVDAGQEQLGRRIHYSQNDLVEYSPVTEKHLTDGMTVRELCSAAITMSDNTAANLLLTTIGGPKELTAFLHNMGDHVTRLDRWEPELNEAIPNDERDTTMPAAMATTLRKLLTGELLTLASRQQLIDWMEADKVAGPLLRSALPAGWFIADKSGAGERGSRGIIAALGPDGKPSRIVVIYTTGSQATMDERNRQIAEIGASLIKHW

[14] = test system: CHO; test: CHO cell viability loss, potency – luminescence, cytotoxicity control for TLR9-MyD88 binding inhibitor project, dose response (AID 588339); format: functional, cell-based, hamster; details: Cricetulus griseus;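 also: CHO cells stably coexpressing TLR9 and MyD88 fusions from primary screen; compound exposure lasted 48 hours before viability readout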

IC50 [1]: 22.1 µM (active)
IC50 [2]: > 100 µM (inactive)
IC50 [5]: 3.75 µM (active)
IC50 [6]: > 99 µM (inactive)
IC50 [7]: 4.45 µM (active)
IC50 [8]: 8.29 µM (active)
Compound: O=C(Nc1ccc(Br)cc1)c1ccc2c(c1)OCO2
IC50 [3]: > 100 µM (inactive)
IC50 [4]: > 99 µM (inactive)

IC50 [9]: 5.99 µM (active)
IC50 [10]: 11.8 µM (active)
Compound: CC(C)c1ccc(NC2CCCN(C(=O)c3[nH]nc4c3CCC4)C2)cc1 (configuration not stated)

IC50 [11]: 2.53 µM (active)
IC50 [6]: 25 µM (active)
IC50 [8]: 11 µM (active)
Compound: Cc1ccc(C(=O)Nc2nc3ccc(Cl)cc3s2)o1
IC50 [4]: 3 µM (active)
IC50 [12]: 1.65 µM (active)

Compound: COc1ccc(/C=N/Nc2ccc([N+](=O)[O-])cc2)cc1O
IC50 [13]: 10.7 µM (inactive)
IC50 [14]: 45.1 µM (inactive)
